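In this assay, cells in 96-well plates receive the compound at five concentrations for 48 hours. Endpoints are linearly interpolated between the surrounding concentrations. The concentration for 50% growth inhibition is given as GI50. TGI marks complete inhibition of growth.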
Assays:
Assay in all cases: growth of human tumour cells (NCI), 48 h
[1] = system: A498 renal
[2] = system: ACHN renal
[3] = system: BT-549 breast
[4] = system: CAKI-1 renal
[5] = system: CCRF-CEM leukemia
[6] = system: DU-145 prostate
[7] = system: EKVX NSCLC
[8] = system: HCC-2998 colon
[9] = system: HCT-15 colon
[10] = system: HL-60(TB) leukemia
[11] = system: HOP-92 NSCLC
[12] = system: HS 578T breast
[13] = system: HT29 colon
[14] = system: IGROV1 ovarian
[15] = system: K-562 leukemia
[16] = system: LOX IMVI melanoma
[17] = system: MALME-3M melanoma
[18] = system: MCF7 breast
[19] = system: MDA-MB-231 breast
[20] = system: MDA-MB-435
[21] = system: MDA-MB-468 breast
[22] = system: MOLT-4 leukemia
[23] = system: NCI-H23 lung
[24] = system: NCI-H460 lung
[25] = system: NCI-H522 lung
[26] = system: NCI/ADR-RES ovarian
[27] = system: OVCAR-3 ovarian
[28] = system: OVCAR-5 ovarian
[29] = system: RXF 393 renal
[30] = system: SF-268 CNS
[31] = system: SF-295 CNS
[32] = system: SF-539 CNS
[33] = system: SK-MEL-2 melanoma
[34] = system: SK-MEL-28 melanoma
[35] = system: SK-MEL-5 melanoma
[36] = system: SK-OV-3 ovarian
[37] = system: SN12C renal
[38] = system: SNB-19 CNS
[39] = system: SNB-75 CNS
[40] = system: SR leukemia
[41] = system: SW-620 colon
[42] = system: TK-10 renal
[43] = system: UACC-257 melanoma
[44] = system: UACC-62 melanoma
[45] = system: UO-31 renal

`CC(=O)Nc1ccc(-c2cn(-c3cccc(C(=O)Nc4cc(CN5CCOCC5)cc(C(F)(F)F)c4)c3)nn2)cn1` was tested, and the GI50 [1] was 2410 nM, the TGI [1] was 4570 nM and the GI50 [2] was 1770 nM. For the same compound, the TGI [2] was 3260 nM, the GI50 [3] was 2590 nM and the TGI [3] was 4440 nM. It also gave a GI50 [4] of 1910 nM, a TGI [4] of 3480 nM and a GI50 [5] of 3340 nM. For the same compound, the TGI [5] was over 100000 nM, the GI50 [6] was 2400 nM and the TGI [6] was 5110 nM. For the same compound, the GI50 [7] was 2440 nM, the TGI [7] was 6130 nM and the GI50 [8] was 1940 nM. It also gave a TGI [8] of 3500 nM, a GI50 [9] of 2030 nM and a TGI [9] of 4110 nM. The GI50 [10] was 1330 nM, the TGI [10] was 5470 nM and the GI50 [11] was 1950 nM. For the same compound, the TGI [11] was 4620 nM, the GI50 [12] was 1900 nM and the TGI [12] was 5040 nM. For the same compound, the GI50 [13] was 2000 nM, the TGI [13] was 5970 nM and the GI50 [14] was 2190 nM. For the same compound, the TGI [14] was 5120 nM, the GI50 [15] was 178 nM and the TGI [15] was over 100000 nM. The GI50 [16] was 1420 nM, the TGI [16] was 2800 nM and the GI50 [17] was 477 nM. It also gave a TGI [17] of 1820 nM, a GI50 [18] of 1720 nM and a TGI [18] of 3350 nM. It also gave a GI50 [19] of 1230 nM, a TGI [19] of 2590 nM and a GI50 [20] of 1580 nM. It also gave a TGI [20] of 3290 nM, a GI50 [21] of 1650 nM and a TGI [21] of 3100 nM. For the same compound, the GI50 [22] was 3120 nM, the TGI [22] was 16700 nM and the GI50 [23] was 1630 nM. It also gave a TGI [23] of 3080 nM, a GI50 [24] of 2340 nM and a TGI [24] of 5110 nM. It also gave a GI50 [25] of 2040 nM, a TGI [25] of 4820 nM and a GI50 [26] of 9400 nM. The TGI [26] was over 100000 nM, the GI50 [27] was 2230 nM and the TGI [27] was 3990 nM. For the same compound, the GI50 [28] was 1880 nM, the TGI [28] was 4990 nM and the GI50 [29] was 1870 nM. It also gave a TGI [29] of 3360 nM, a GI50 [30] of 2580 nM and a TGI [30] of 5580 nM. It also gave a GI50 [31] of 1590 nM, a TGI [31] of 2940 nM and a GI50 [32] of 1480 nM. For the same compound, the TGI [32] was 2820 nM, the GI50 [33] was 2130 nM and the TGI [33] was 5440 nM. It also gave a GI50 [34] of 1280 nM, a TGI [34] of 2570 nM and a GI50 [35] of 1570 nM. For the same compound, the TGI [35] was 2930 nM, the GI50 [36] was 2130 nM and the TGI [36] was 3930 nM. It also gave a GI50 [37] of 1650 nM, a TGI [37] of 3080 nM and a GI50 [38] of 2230 nM. For the same compound, the TGI [38] was 4360 nM, the GI50 [39] was 1780 nM and the TGI [39] was 3280 nM. The GI50 [40] was over 100000 nM, the TGI [40] was over 100000 nM and the GI50 [41] was 1940 nM. For the same compound, the TGI [41] was 3830 nM, the GI50 [42] was 433 nM and the TGI [42] was 1460 nM. The GI50 [43] was 1630 nM, the TGI [43] was 3570 nM and the GI50 [44] was 1290 nM. The TGI [44] was 2660 nM, the GI50 [45] was 1920 nM and the TGI [45] was 3800 nM.

`CC1(C)CC(O)CC(C)(C)N1O` showed a GI50 [21] of over 100000 nM and a TGI [21] of over 100000 nM.

Compound `O=C1C(Cl)=C(Nc2ccc(S(=O)(=O)c3ccc(NC4=C(Cl)C(=O)c5ccccc5C4=O)cc3)cc2)C(=O)c2ccccc21` has a GI50 [21] of 1500 nM and a TGI [21] of 3090 nM.

Work on `N[C@@H]1CCCN(c2c(Br)cnc3[nH]cc(NC(=O)C4CC4)c23)C1` yielded a GI50 [21] of 2110 nM and a TGI [21] of 36200 nM.

`CCCCNc1ncnc2c1cnn2-c1ccccc1` showed a GI50 [21] of 2240 nM and a TGI [21] of 7600 nM.

Compound `COc1cc(N=Nc2cc(Cc3ccc(N(C)C)cc3)c(N)cc2N(C)C)c2ncccc2c1` has a GI50 [21] of 226 nM and a TGI [21] of 622 nM.

Compound `Nc1nc(SCc2ccccc2CCl)c2[nH]cnc2n1` has a GI50 [21] of 11900 nM and a TGI [21] of 30800 nM.

In the case of `Clc1ccc2c(NCCNc3nc(N4CCOCC4)nc4ccccc34)ccnc2c1`, the GI50 [21] is reported as 1910 nM and the TGI [21] is reported as 4530 nM.

`COc1cc2c(c(OC)c1OC)-c1cc(I)c(O)cc1[C@@H](NC(C)=O)CC2` showed a GI50 [21] of 24.3 nM and a TGI [21] of 71.5 nM.

For `CN(C)CCCN1c2ccccc2Sc2ccc(C(F)(F)F)cc21`, the GI50 [21] was 1250 nM and the TGI [21] was 2650 nM.

With `CN1CCCCC1CCN1c2ccccc2Sc2ccc(Br)cc21` (centres undefined) the GI50 [21] was 1780 nM and the TGI [21] was 3650 nM.

`COc1cccc(C2CC(=O)Nc3c2c(C)nn3-c2nc3ccccc3[nH]2)c1OC` (centres undefined) gave a GI50 [21] of 4110 nM and a TGI [21] of 32600 nM.

With `CCn1cc(C(=O)O)c(=O)c2cc(F)c(N3CCN(S(=O)(=O)c4ccc(Cl)cc4Cl)CC3)cc21` the GI50 [21] was 1980 nM and the TGI [21] was 5500 nM.

With `Cc1ccc(NCCNCC(C)(C)O)c2c(=O)c3ccc(Cl)cc3sc12` the GI50 [21] was 1700 nM and the TGI [21] was 3240 nM.

`COc1ccc2nc3ccccc3c(NCCNCCO)c2c1` showed a GI50 [21] of 351 nM and a TGI [21] of 1370 nM.

`COc1cc(C(=O)c2cnc(-c3c[nH]c4cccc(C)c34)[nH]2)cc(OC)c1OC` gave a GI50 [21] of 2.64 nM.

`[O]=[Sn]([CH]1CCCCC1)[CH]1CCCCC1` gave a GI50 [21] of 97.7 nM and a TGI [21] of 250 nM.

With `Cc1ccc(S(=O)(=O)OC[C@@]2(C)CC[C@]3(C)CC[C@]4(C)C(=C3C2)C=C[C@@H]2[C@@]3(C)CCCNC(C)(C)[C@@H]3CC[C@]24C)cc1` the GI50 [21] was 1590 nM and the TGI [21] was 3220 nM.

Work on `COc1cc2ncn(-c3cc(OCc4ccccc4C(F)(F)F)c(C(N)=O)s3)c2cc1OC` yielded a GI50 [21] of 61.9 nM and a TGI [21] of 857 nM.

`Cc1cc(NC(=O)NCc2ccc(N3C(N)=NC(N)=NC3(C)C)cc2)ccc1S(=O)(=O)F` was tested, and the GI50 [21] was 7990 nM and the TGI [21] was over 100000 nM.

For `CC[C@]12C=CCN3CC[C@]4(C(=C(C(=O)OC)C1)Nc1cc5c(cc14)[C@@H]1[C@H](O5)[C@@H](O)[C@@]4(CC)CC(C(=O)OC)=C5Nc6cc(O)ccc6[C@@]56CCN1C46)C32` (some centres undefined), the GI50 [21] was 38.4 nM and the TGI [21] was 1510 nM.
